Measured values taken from ChEMBL document CHEMBL3352783, “A highly water soluble benzimidazole derivative useful for the treatment of fasciolosis” (Bioorg Med Chem Lett, 2014).
≈ marks a conversion by molar mass, not a printed value.

Tests used:
[1] = Aqueous stability of the compound assessed as time duration showing >95% compound stability at pH 7 and room temperature by UV-HPLC; format: physicochemical; details: buffer
Fasciola hepatica [2] = assay: Antiparasitic activity against 10 week old Fasciola hepatica infected in sheep assessed as reduction in worm burden at 15 mg/kg, po; format: functional
Fasciola hepatica [3] = assay: Antiparasitic activity against Fasciola hepatica assessed as mortality at 50 mg/L after 24 hrs relative to untreated control; format: functional
Fasciola hepatica [4] = assay: Antiparasitic activity against Fasciola hepatica assessed as mortality at 10 mg/L after 24 hrs relative to untreated control; format: functional
Fasciola hepatica [5] = assay: Antiparasitic activity against Fasciola hepatica assessed as mortality at 50 mg/L after 48 hrs relative to untreated control; format: functional
Fasciola hepatica [6] = assay: Antiparasitic activity against Fasciola hepatica assessed as mortality at 10 mg/L after 48 hrs relative to untreated control; format: functional
Fasciola hepatica [7] = assay: Antiparasitic activity against Fasciola hepatica assessed as mortality at 50 mg/L after 72 hrs relative to untreated control; format: functional
Fasciola hepatica [8] = assay: Antiparasitic activity against Fasciola hepatica assessed as mortality at 10 mg/L after 72 hrs relative to untreated control; format: functional
Fasciola hepatica [9] = assay: Antiparasitic activity against Fasciola hepatica infected in sheep assessed as reduction of eggs at 12 mg/kg, po; format: functional
Fasciola hepatica [10] = assay: Antiparasitic activity against Fasciola hepatica infected in sheep assessed as reduction of eggs at 4 mg/kg, intramuscular; format: functional
Fasciola hepatica [11] = assay: Antiparasitic activity against Fasciola hepatica infected in sheep assessed as reduction of eggs at 4 mg/kg, sc; format: functional; details: route subcutaneous
Fasciola hepatica [12] = assay: Antiparasitic activity against Fasciola hepatica infected in sheep assessed as fluke reduction at 12 mg/kg, po; format: functional
Fasciola hepatica [13] = assay: Antiparasitic activity against Fasciola hepatica infected in sheep assessed as fluke reduction at 4 mg/kg, intramuscular; format: functional
Fasciola hepatica [14] = assay: Antiparasitic activity against Fasciola hepatica infected in sheep assessed as fluke reduction at 4 mg/kg, sc; format: functional; details: route subcutaneous
[15] = Aqueous solubility of the compound at pH 7 and 25 degC; format: physicochemical

Compound | Stability [1] [h] | Efficacy (Fasciola hepatica [2]) [%] | Efficacy (Fasciola hepatica [3]) [%] | Efficacy (Fasciola hepatica [4]) [%] | Efficacy (Fasciola hepatica [5]) [%] | Efficacy (Fasciola hepatica [6]) [%] | Efficacy (Fasciola hepatica [7]) [%] | Efficacy (Fasciola hepatica [8]) [%] | Efficacy (Fasciola hepatica [9]) [%] | Efficacy (Fasciola hepatica [10]) [%] | Efficacy (Fasciola hepatica [11]) [%] | Efficacy (Fasciola hepatica [12]) [%] | Efficacy (Fasciola hepatica [13]) [%] | Efficacy (Fasciola hepatica [14]) [%] | solubility [15] [µg/mL]
CSc1nc2cc(Oc3cccc4ccccc34)c(Cl)cc2[nH]1 | > 26 | 86.9 | – | – | – | – | – | – | – | – | – | – | – | – | –
CSc1nc2cc(Oc3cccc4ccccc34)c(Cl)cc2n1COP(=O)([O-])[O-].[Na+].[Na+] | > 26 | – | 100 | 95.8 | 100 | 95.8 | 100 | 100 | 95.1 | 44.9 | 65.8 | 83.3 | 87.8 | 61.4 | –
CSc1nc2cc(Cl)c(Oc3cccc(Cl)c3Cl)cc2[nH]1 [TRICLABENDAZOLE] | > 24 | – | 100 | 100 | 100 | 100 | 100 | 100 | – | – | – | – | – | – | 0.2 (≈ 0.556 µM)
